Patent publication US4888049A, “Synergist for biocide” (Kao Corporation, priority 1986, dated 1989)

Tested on: Crabgrasses
Assay: Herbicidal effect of Karmex D (DCMU) herbicide with or without compound 6 (Example 6)
Assay type: in vivo, crabgrass
Conditions: compound 6, where added, 2000 ppm in the diluted solution
Method: Crabgrasses (30 crabgrasses per pot) which were in a trifoliate stage were treated with the above herbicide in a predetermined concentration. 7 days after the treatment, the weight of survival at the aerical part and the percentage herbicidal effect relative to the untreated section (%) were calculated. 50% herbicidal concentration was also determined.
The above-mentioned preparation was diluted with water to have a predetermined concentration.

CCCCCCCCC(CCCCCC)C[N+](C)(C)Cc1ccc(Cl)cc1 (centres unmarked) [compound 6]
herbicidal effect (%) (active ingredient (DCMU) concn. 125 ppm): 39% | herbicidal effect (%) (active ingredient (DCMU) concn. 250 ppm): 55% | herbicidal effect (%) (active ingredient (DCMU) concn. 500 ppm): 77% | herbicidal effect (%) (active ingredient (DCMU) concn. 1000 ppm): 91% | herbicidal effect (%) (active ingredient (DCMU) concn. 2000 ppm): 100%
